Holding throughout (format): biochemical
The target in assay [1] is mu opioid receptor (MOR) (Homo sapiens, UniProt P35372). Put plainly: GTP-γ-S Binding Assay (SPA-based), antagonist mode vs DAMGO. The conditions noted are these: In vitro antagonism; agonist DAMGO 1 micromolar; Kb by Cheng-Prusoff equation. How it is done: (§1) An SPA—based GTP-γ-S assay format was developed based on previous opioid (Emmerson et al., J. Pharm Exp Ther 278, 1121, 1996; Horng et al., Society for Neuroscience Abstracts, 434.6, 2000) and muscarinic (DeLapp et al., JPET 289, 946, 1999) assay formats. Membranes were re-suspended in 20 mM HEPES, 100 mM NaCl, 5 mM MgCl2, 1 mM DTT, and 1 mM EDTA. Fifty (50) […] of GTP-γ-[35S], compound, membrane suspension (20 microgram/well), and wheat germ agglutinin coated SPA beads (1 mg/well) were added to clear bottom 96 well assay plates. GDP ([…]) was added to the membrane solution prior to addition to the assay plates. Plates were sealed and incubated for four hours at room temperature then placed in a refrigerator overnight to allow the beads to settle. Signal stability at 4° C. was determined to be >60 hours. Plates were warmed to room temperature and counted in a Wallac Microbeta scintillation counter. For antagonist assays, specific agonists were added at the following concentrations: (MOR) DAMGO 1 micromolar, (DOR) DPDPE 30 nM, (KOR) U69593 300 nM. Kb's were determined by Cheng-Prusoff equation (see Cheng and Prusoff, Biochem. Pharmacol. 22, 3099, 1973).
Chain of mu opioid receptor (MOR) (P35372 whole entry): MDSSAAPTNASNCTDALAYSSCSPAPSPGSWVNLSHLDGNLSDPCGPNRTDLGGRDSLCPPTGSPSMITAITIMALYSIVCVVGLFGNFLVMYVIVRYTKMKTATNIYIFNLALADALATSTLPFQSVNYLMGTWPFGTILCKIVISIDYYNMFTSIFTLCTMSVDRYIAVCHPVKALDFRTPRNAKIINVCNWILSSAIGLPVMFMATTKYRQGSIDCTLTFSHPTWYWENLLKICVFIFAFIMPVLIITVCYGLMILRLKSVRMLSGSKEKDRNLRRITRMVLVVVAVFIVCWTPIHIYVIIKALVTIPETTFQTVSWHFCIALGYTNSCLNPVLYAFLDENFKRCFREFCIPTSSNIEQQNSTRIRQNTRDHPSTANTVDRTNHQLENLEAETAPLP

For assay [2], the target named is kappa opioid receptor (KOR) (Homo sapiens, UniProt P41145). As to the kind of experiment: GTP-γ-S Binding Assay (SPA-based), antagonist mode vs U69593. Particulars: In vitro antagonism; agonist U69593 300 nM; Kb by Cheng-Prusoff equation. How it is done:
as §1

For assay [3], the target named is delta opioid receptor (DOR) (Homo sapiens, UniProt P41143). As to the kind of experiment: GTP-γ-S Binding Assay (SPA-based), antagonist mode vs DPDPE. The conditions noted are these: In vitro antagonism; agonist DPDPE 30 nM; Kb by Cheng-Prusoff equation. How it is done: as §1
Chain of delta opioid receptor (DOR) (P41143 whole entry): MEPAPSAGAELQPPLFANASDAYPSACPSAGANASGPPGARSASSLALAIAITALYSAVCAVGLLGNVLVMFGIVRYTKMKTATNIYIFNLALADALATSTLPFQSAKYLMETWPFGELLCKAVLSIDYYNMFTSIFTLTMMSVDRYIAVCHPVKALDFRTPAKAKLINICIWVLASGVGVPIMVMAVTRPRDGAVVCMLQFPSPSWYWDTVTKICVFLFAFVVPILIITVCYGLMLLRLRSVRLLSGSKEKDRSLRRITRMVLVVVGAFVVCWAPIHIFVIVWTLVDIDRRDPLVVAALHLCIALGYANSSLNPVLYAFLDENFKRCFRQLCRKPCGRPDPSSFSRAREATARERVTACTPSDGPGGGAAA

Usually Kb stands for the equilibrium dissociation constant of an antagonist, usually derived from a functional assay.

A value given as a limit tells only on which side of the number the result lay.

Chain of kappa opioid receptor (KOR) (P41145 whole entry): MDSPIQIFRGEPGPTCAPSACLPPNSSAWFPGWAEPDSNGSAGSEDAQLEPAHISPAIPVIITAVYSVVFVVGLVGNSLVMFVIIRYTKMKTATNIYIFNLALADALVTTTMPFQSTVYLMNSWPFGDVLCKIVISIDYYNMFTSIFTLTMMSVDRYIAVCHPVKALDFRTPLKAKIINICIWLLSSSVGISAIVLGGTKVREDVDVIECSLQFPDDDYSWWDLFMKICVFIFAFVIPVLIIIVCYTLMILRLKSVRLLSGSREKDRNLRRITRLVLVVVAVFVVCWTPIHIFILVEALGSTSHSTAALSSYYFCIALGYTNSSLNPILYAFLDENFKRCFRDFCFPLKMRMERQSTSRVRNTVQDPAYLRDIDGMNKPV

Turning to `NC(=O)c1ccc(OC2CCC(NCCC3CCOCC3)CC2)nc1` (racemic) [Example 1, ±6-{4-[2-(Tetrahydro-pyran-4-yl)-ethylamino]-cyclohexyloxy}-nicotinamide], the Kb in assay [1] worked out at 0.566 µM; in assay [2] it was 0.601 µM; in assay [3], 0.819 µM.

For `CC(C)CCNC1CCC(Oc2ccc(C(N)=O)cn2)CC1` (racemic) [Example 2, ±6-[4-(3-Methyl-butylamino)-cyclohexyloxy]-nicotinamide], the Kb in assay [1] was 0.594 µM; in assay [2] it was 0.62 µM; in assay [3], 0.996 µM.

With `NC(=O)c1ccc(OC2CCN(Cc3cc4ccccc4[nH]3)CC2)nc1` [Example 8, 6-[1-(1H-Indol-2-ylmethyl)-piperidin-4-yloxy]-nicotinamide], the Kb in assay [1] was greater than 1.85 µM; in assay [2] it was 0.937 µM; in assay [3], greater than 7.3 µM.

Regarding `NC(=O)c1ccc(OC2CCN(Cc3ccccn3)CC2)nc1` [Example 6, 6-(1-Pyridin-2-ylmethyl-piperidin-4-yloxy)-nicotinamide], the figures for the Kb in assay [1], in assay [2] and in assay [3] were greater than 1.8 µM, 0.43 µM and greater than 7.3 µM, respectively.

For the molecule `NC(=O)c1ccc(OC2CCN(Cc3ccccc3)CC2)cc1` [Example 9, 4-(1-Benzyl-piperidin-4-yloxy)-benzamide], the Kb was 1.12 µM in assay [1], 0.93 µM in assay [2] and greater than 7.3 µM in assay [3].

On to `NC(=O)c1ccc(OC2CCN(CC3CC3)CC2)nc1` [Example 7, 6-(1-Cyclopropylmethyl-piperidin-4-yloxy)-nicotinamide], for which the Kb in assay [1] is 1.78 µM; in assay [2], 1.05 µM; in assay [3] it was greater than 7.3 µM.

For `NC(=O)c1ccc(OC2CCN(CCCc3ccccc3)CC2)cc1` [Example 10, 4-[1-(3-Phenyl-propyl)-piperidin-4-yloxy]-benzamide], the Kb in assay [1] was 0.453 µM; in assay [2] it was 0.999 µM; in assay [3] it was 1.96 µM.

The values above are taken from US7196100B2, “Opioid receptor antagonists” (Eli Lilly and Company, priority 2004, dated 2007).
